Source: patent US20250304544A1, “MOLEPHANTIN DERIVATIVES USEFUL IN THE TREATMENT OF CANCER” (Nanyang Technological University, priority 2021, published 2025)

Tested on: human hepatoma cell line (SMMC-7221)
Test: not given
Settings: cited from earlier work
In the case of Tomenphantopin-E, the IC50 is listed as “inactive”.

Same assay, conditions: read-out: IC50; cited from earlier work
For Tomenphantopin-D, the IC50 is given as 11.2 µM.

Tested on: DLD-1 cells xenograft
Test: DLD-1 subcutaneous tumour xenograft mouse model
Format: in vivo
Settings: DLD-1 xenografted mice, 25 mg/kg intraperitoneal once every 2 days, after 21 days
Description: (§1) Female J:Nu outbred nude mice (5-6 weeks old) were injected subcutaneously at the right flank with 1×10^6 HCT116 or DLD-1 cells in 1:1 Hank's Balanced salt solution/Matrigel. Mice were assigned into treatment groups (4-5 mice per group) when tumour volumes reached 50-100 mm^3. Vehicle control (Ethanol:Kolliphor EL:saline=1:1:8), NYH001 (25 mg/kg), NYH002 (25 mg/kg) or 5-flurouracil (5-FU, 25 mg/kg) was given once every 2 days by intraperitoneal injection for 3 weeks. Bodyweight of the mice was taken every day and tumour size was measured twice a week. Tumour sizes were calculated using the formula, volume=(length×width^2)/2 mm^3. At the end of the 3 weeks treatment period, the mice were sacrificed and tumours excised. All procedures were approved by the NTU Institutional Animal Care and Use Committee (IACUC) and conducted in accordance with the IACUC protocol A20001.
For `O=c1[nH]cc(F)c(=O)[nH]1` [5-FU, 5-flurouracil, reference compound], the “reduction of average tumor volume compared to vehicle control” value was 32.3% and the “reduction of average tumor weight compared to vehicle control” value was 38.7%.

Tested on: human KB oral carcinoma cells
Test: not given
Settings: cytotoxic activity / proliferation; cited from earlier work
In the case of Tomenphantopin-A, the ED50 is given as 2.5 µg/mL.
In the case of Tomenphantine-B, the ED50 is given as 2.7 µg/mL.
In the case of Tomenphantopin-B, the ED50 is listed as 5.0 µg/mL.
In the case of Tomenphantine-A, the ED50 is given as 3.0 µg/mL.

Tested on: human myeloid leukemia cell line K562
Test: not given
Settings: cited from earlier work
For Tomenphantopin-E, the IC50 is listed as “inactive”.

Same assay, conditions: read-out: IC50; cited from earlier work
For Tomenphantopin-D, the IC50 is listed as 44.8 µM.

Tested on: HCT116 cells xenograft
Test: HCT116 subcutaneous tumour xenograft mouse model
Format: in vivo
Settings: HCT116 xenografted mice, 25 mg/kg intraperitoneal once every 2 days, after 21 days
Description: as §1
In the case of `O=c1[nH]cc(F)c(=O)[nH]1` [5-FU, 5-flurouracil, reference compound], the “reduction of average tumor volume compared to vehicle control” value is reported as 10.4% and the “reduction of average tumor weight compared to vehicle control” value is reported as 21.9%.
